Results from patent US6872727B1, “Polycyclic pyrimidine -2,4(1H,3H)-diones with functionalized alkyl residues at the 1- and/or 3-position(s); methods for their synthesis and pharmaceutical preparation” (Privates Institut fur Biomedizinische Forschung und Beratung, priority 1999, dated 2005).

Key:
Type in all cases: biochemical
[1] = molecular target: T1, human matrix metalloproteinase-2 (MMP-2; gelatinase A) (Homo sapiens, UniProt P08253); experiment: Inhibition of human matrix metalloproteinase-2 (gelatinase A); conditions: trypsin-activated MMP-2 from human dermal fibroblast culture supernatant; read-out: MMP-2 (50% inhibition)
T1 construct: to prepare the enzymatically active mature form of the enzyme; endogenous in cells; host or cells: human dermal fibroblasts (secreted into culture supernatant)
T1 sequence (P08253 110-660): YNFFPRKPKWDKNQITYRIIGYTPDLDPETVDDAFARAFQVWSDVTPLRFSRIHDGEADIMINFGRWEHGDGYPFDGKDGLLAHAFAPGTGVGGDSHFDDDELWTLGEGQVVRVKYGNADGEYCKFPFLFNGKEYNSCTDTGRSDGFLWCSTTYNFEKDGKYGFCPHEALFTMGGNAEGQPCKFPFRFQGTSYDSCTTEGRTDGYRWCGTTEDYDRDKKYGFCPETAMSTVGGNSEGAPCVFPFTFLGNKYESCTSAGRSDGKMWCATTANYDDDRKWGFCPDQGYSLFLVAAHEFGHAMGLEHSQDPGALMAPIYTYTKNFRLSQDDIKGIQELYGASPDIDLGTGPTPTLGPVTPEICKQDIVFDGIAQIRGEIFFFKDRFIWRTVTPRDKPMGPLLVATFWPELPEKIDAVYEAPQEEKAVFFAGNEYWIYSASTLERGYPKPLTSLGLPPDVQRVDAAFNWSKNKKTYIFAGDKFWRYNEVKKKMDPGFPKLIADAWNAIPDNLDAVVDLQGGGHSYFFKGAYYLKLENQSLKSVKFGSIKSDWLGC
Description: MMP-2 is easily prepared by standard procedures from the culture medium of cultivated human fibroblasts in reasonable quantities, and is therefore readily available. […] A screening system based on the measurement of the proteolytic activity of MMP-2 was developed to analyse the inhibitory effects of the various inhibitors described in Table 1.
To this end, human dermal fibroblasts were obtained and maintained in culture using standard methods. The cell-free culture supernatant containing the secreted pro-MMP-2 was treated with trypsin. The trypsin was inactivated with the specific active-site serine proteinase inhibitor Nα-p-tosyl-L-lysine-chloromethylketone (TLCK), and the active MMP-2 was partially purified by gel filtration on Sepharose 4B. The isolated MMP-2 was identified and characterized by the use of a commercially available immunoassay.
A simple nonradioactive assay was developed to measure MMP-2 activity using gelatin as a substrate that allows both a large number of samples to be analysed in parallel and to generate kinetic data. Partially purified MMP-2 was incubated with a suitable dilution of gelatin under standardized conditions (time, buffer, pH, temperature, inhibitor, additives), and uncleaved gelatin was separated from degradation products by suction filtration through a nitrocellulose filter. High-molecular-weight gelatin is thereby bound to the nitrocellulose filter, and the low-molecular-weight gelatin-derived peptides pass through it. The nitrocellulose-bound gelatin can be stained with Ponceau S or Commassie Brilliant Blue protein stains, and the degree of staining quantified densitometrically using a commercially available electrophoresis gel documentation system supported by dedicated analytical software. The nitrocellulose filtration is conducted using a commercially available dot- or slot-blotting apparatus.
The gelatinase assay described here has been validated by comparison with results obtained with an established collagenase assay using radioactive or fluorescently labeled collagen as substrate.
(§1) The enzymatic cleavage of commercially available synthetic internally quenched fluorigenic peptide substrates such as 7-methylcoumarin-4-yl-acetyl-prolyleucyl-glycyl-leucyl-(dinitrophenyl-L-α,β-diaminopropionyl)-alanyl-arginylamide (Mca-Pro-Leu-Gly-Leu-Dap(Dnp)-Ala-Arg-NH2) at the scissile -Gly-Leu-peptide bond separates the fluorescent Mca group from the dinitrophenol quencher, resulting in a strong linear increase in fluorescence intensity that can be readily measured in a fluorimeter (λexitation328 nm, λemission 393 nm) over the first few minutes of the reaction. The specificity of the assay for matrix metalloproteinases is provided by the type I collagen-derived sequence -Pro-Leu-Gly-Leu- in the synthetic substrate, as well as by the incubation conditions. To test the efficacy of the synthetic collagenase/MMP inhibitors, the residual enzymatic activity remaining after an incubation of enzyme plus different amounts of inhibitor is measured at a fixed enzyme and substrate concentration. For each inhibitor, three test series at different fixed substrate concentrations were carried out. From the time-dependent increase in fluorescence intensity measured, the velocity (v) of the enzymatic activity can be calculated as increase in arbitrary fluorescence intensity units per minute. The inhibition constant Ki is calculated graphically by the method of Dixon (1953) by plotting the reciprocal of the reaction velocity 1/v on the ordinate, and the inhibitor concentration on the abscissa. The x-intercept of the linear plot is defined as minus K1 value.
1984 μl assay buffer (100 mM Tris-HCl pH 7,5, 100 mM NaCl, 10 mM CaCl2, 0,05% Brij 35) • 2 μl inhibitor dissolved in DMSO, or DMSO alone as a solvent control • 4 μl enzyme (MMP-2, MMP-9, or the catalytic domain of MMP-8) • 10 μl Mca-Pro-Leu-Gly-Leu-Dap(Dnp)-Ala-Arg-NH2 in DMSO Method • 1. […]

[2] = molecular target: Clostridium histolyticum collagenase (EC 3.4.24.3); experiment: Inhibition of Clostridium histolyticum collagenase, spectrophotometric FALGPA assay; conditions: chromogenic substrate FALGPA; read-out: C. histolyticum (50% inhibition)
Description: The activity of Clostidium histolyticum collagenase may be readily determined by a simple spectrophotometric assay using the synthetic chromogenic peptide substrate N-(3-[2-furyl]acryloyi)-leucine-glycine-proline-alanine (FALGPA; Van Hart, H. E. and Steinbrink, D. R. 1981, Anal. Biochem. 113, 356). The degree of inhibition of the degradation of this chromogenic substrate by the addition of the various test substances described in Table 1 may be easily quantified. The enzyme and substrate are commercially available.

[3] = molecular target: T2, catalytic domain of human matrix metalloproteinase-8 (MMP-8; neutrophil collagenase) (Homo sapiens, UniProt P22894); experiment: Inhibition of catalytic domain of human MMP-8, fluorimetric assay, Dixon plot; conditions: recombinant catalytic domain, Mca-Pro-Leu-Gly-Leu-Dap(Dnp)-Ala-Arg-NH2 substrate
T2 construct: express heterologously only the catalytic domain, rather than the entire MMP-8, in Escherichia coli; made in house; host or cells: Escherichia coli
T2 sequence (P22894 100-262 limits assumed): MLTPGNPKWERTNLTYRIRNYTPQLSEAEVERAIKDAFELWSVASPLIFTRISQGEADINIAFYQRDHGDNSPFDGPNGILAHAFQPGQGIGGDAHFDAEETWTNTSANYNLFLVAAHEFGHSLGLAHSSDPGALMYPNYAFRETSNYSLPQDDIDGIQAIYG
Description: The catalytic domain of MMP-8 was chosen as a further test enzyme because of its high stability and constitutive activity, obviating the need for enzymatic or chemical activation, which is a well-known source of error, e.g. the commonly used organomercurial compounds used to activate pro-MMPs may interfere in subsequent assays or affect the activity of the enzyme, leading to erroneous interpretation of results. The cloning strategy was designed to express heterologously only the catalytic domain, rather than the entire MMP-8, in Escherichia coli. With the so-constructed expressed catalytic domain, we obtained a stable enzymatically active, highly pure enzyme that is well suited for routine investigation of the efficacy of the synthetic inhibitors and provides highly reproducible test results.
The cloning and expression of the recombinant catalytic domain of MMP-8 follows the protocol developed by Schnierer et al. (Schnierer, S., Kleine, T., Gote, T., Hilleman, A., Knäuper, V., and Tschesche, H., 1993, The recombinant catalytic domain of human neutrophil collagenase lacks type I collagen substrate specificity, Biochem. Biophys. Res. Commun. 191, 319-326).
as §1
(§2) 1984 μl assay buffer (100 mM Tris-HCl pH 7,5, 100 mM NaCl, 10 mM CaCl2, 0,05% Brij 35) • 2 μl inhibitor dissolved in DMSO, or DMSO alone as a solvent control • 4 μl enzyme (MMP-2, MMP-9, or the catalytic domain of MMP-8) • 10 μl Mca-Pro-Leu-Gly-Leu-Dap(Dnp)-Ala-Arg-NH2 in DMSO Method • 1. Incubate buffer, enzyme, and inhibitor for 5 min at room temperature, with stirring. • 2. Start the reaction by adding 10 μl substrate in DMSO • 3. Record the increase in fluorescence intensity over 2 min. Confirmation of the Inhibitory Activity by Protein Zymographic Analysis

[4] = molecular target: T3, human matrix metalloproteinase-9 (MMP-9; gelatinase B) (Homo sapiens, UniProt P14780); experiment: Inhibition of human matrix metalloproteinase-9 (gelatinase B); conditions: trypsin-activated native MMP-9 from human buffy coat; read-out: MMP-9 (50% inhibition)
T3 construct: from tissue; host or cells: human buffy coat (blood leukocytes)
T3 sequence (P14780 107-707 limits assumed): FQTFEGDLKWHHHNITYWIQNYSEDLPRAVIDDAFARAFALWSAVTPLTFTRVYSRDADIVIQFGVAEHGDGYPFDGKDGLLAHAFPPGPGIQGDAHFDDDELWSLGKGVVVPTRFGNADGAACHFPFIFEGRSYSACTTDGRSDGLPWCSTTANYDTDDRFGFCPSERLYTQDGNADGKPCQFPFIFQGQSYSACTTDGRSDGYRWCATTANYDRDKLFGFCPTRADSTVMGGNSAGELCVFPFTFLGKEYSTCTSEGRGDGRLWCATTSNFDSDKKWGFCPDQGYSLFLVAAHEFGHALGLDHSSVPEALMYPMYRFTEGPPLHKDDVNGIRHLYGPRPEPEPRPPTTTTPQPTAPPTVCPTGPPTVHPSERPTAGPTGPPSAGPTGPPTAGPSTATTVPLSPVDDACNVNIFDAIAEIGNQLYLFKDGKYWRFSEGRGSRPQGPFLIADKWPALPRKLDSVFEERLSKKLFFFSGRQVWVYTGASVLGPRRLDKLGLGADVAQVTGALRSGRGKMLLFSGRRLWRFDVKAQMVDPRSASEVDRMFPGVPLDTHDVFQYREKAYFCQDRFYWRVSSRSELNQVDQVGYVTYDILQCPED
Procedure: Native MMP-9 was reproducibly obtained with reasonable yield and purity from human buffy coat. Buffy coat, to which was added an appropriate volume of 10% (v/v) Triton-X-100 to obtain a final concentration of 0,4% detergent, was shaken on ice for 30 min; then, one volume of twofold-concentrated binding buffer (40 mM Tris-HCl pH 7,5, 10 mM CaCl2, 1 M NaCl, 0,2% (v/v) Triton X-100 was added and the mixture shaken on ice for a further 30 min.
The mixture was then centrifuged for 15 min at 16,000 rpm (30,590×g) in a Kendro SS-34 rotor at 4° C. and the resulting supernatant filtered over glass wool. The filtrate was incubated batchwise with gelatin-agarose equilibrated in binding buffer for 1 h on ice with continuous shaking The MMP-9-bound gelatin-agarose was then loaded into a chromatographic tube and the column washed with at least ten bed volumes of binding buffer, or until no protein was detected by absorbance at 280 nm in the wash buffer. MMP-9 was eluted from the gelatin affinity column by application of two bed volumes of binding buffer containing 5% (v/v) dimethylsulfoxide (DMSO).
The eluate was applied to a gel filtration column of Sephadex G-75 both to exchange buffer and to eliminate small amounts of contaminating MMP-2. The G-75 column was prepared and eluted with Buffer I [20 mM Tris-HCl pH 7,5, 5 mM CaCl2, 100 mM NaCl, 0,1% (v/v) Triton X-100].
The eluted MMP-9 includes the three characterized forms of the enzyme: monomer, homodimer, and heterodimer (complex with lipokalin). The purity of MMP-9 was estimated to be ca. 90%, with the remaining contaminating protein being fibronectin and small amounts of TIMPS.
The latent MMP-9 was activated by a 30-60 min incubation at 37° C. with 1/100 vol trypsin (10 mg ml^−1). The trypsin was subsequently inactivated by addition of the serine proteinase inhibitor phenlymethylsulfonylfluoride (PMSF) or the more specific trypsin inhibitor TLCK.
as §1
as §2, with “Confirmation of the Inhibitory Activity by Protein Zymographic Analysis” left out

SMILES | IC50 [4] | IC50 [1] | IC50 [2] | Ki [3] | MMP-8 (Ki value) [3]
CC(S)Cn1c(=O)[nH]c(=O)c2ccccc21 (racemic) [Example 1, (R,S)-1-(2-mercaptopropyl)-chinazolin-2,4(1H,3H)-dione] |  | 23.3 µM | 21 µM | 33.3 µM | 
CC(CS)Cn1c(=O)[nH]c2ccccc2c1=O (racemic) [Example 19, (R,S)-3-[3-(2-methyl)-mercaptopropyl]chinazolin-2,4(1H,3H)-dione] |  | 7.1 µM |  | 3 µM | 
CC(C)(S)Cn1c(=O)[nH]c(=O)c2ccccc21 [Example 2, 1-(2-mercapto-2-methylpropyl)-chinazolin-2,4(1H,3H)-dione] |  | 143 µM |  |  | negative
Cn1c(=O)c2ccccc2n(CCS)c1=O [Example 6, 1-(2-mercaptoethyl)-3-methylchinazolin-2,4(1H,3H)-dione] |  | 97.1 µM | 13.1 µM |  | negative
CCn1c(=O)c2ccccc2n(CCS)c1=O [Example 8, 3-ethyl-1-(2-mercaptoethyl)-chinazolin-2,4(1H,3H)-dione] |  |  | 39.4 µM |  | negative
CCn1c(=O)c2ccccc2n(CCCS)c1=O [Example 9, 3-ethyl-1-(3-mercaptoprop-1-yl)-chinazolin-2,4(1H,3H)-dione] | 43.4 µM | 13.9 µM |  |  | 
COc1cc2c(=O)n(C)c(=O)n(CCS)c2cc1OC [Example 10, 6,7-dimethoxy-1-(2-mercaptoethyl)-3-methyl-chinazolin-2,4(1H,3H)-dione] |  | 6.3 µM | 31.5 µM |  | 
O=c1c2ccccc2n(CCS)c(=O)n1Cc1ccccc1 [Example 11, 3-benzyl-1-(2-mercaptoethyl)-chinazolin-2,4(1H,3H)-dione] |  |  | 22.4 µM | 33.3 µM | 
O=c1[nH]c2ccccc2c(=O)n1CCCCCS [Example 13, 3-(5-mercaptopent-1-yl)-chinazolin-2,4(1H,3H)-dione] |  |  |  | 20 µM | 
Cn1c(=O)c2ccccc2n(CCCSCC(=O)NO)c1=O [Example 20, N-hydroxy-2-[3-(methyl-2,4-dioxo-3,4-dihydro-2H-chinazolin-1-yl)-propylsulfanyl]acetamide] | 71.4 µM |  |  |  | 
